In the NIST ThermoML archive (doi:10.1021/acs.jced.8b00975):

Experiment: xn = mol fraction of the nth substance listed
Details: Liquid, Vibrating tube method

C=C(C)C(=O)OCCN(C)C [2-(dimethylamino)ethyl methylpropenoate] + CO
mass density [kg/m3]
Details	100 kPa	5000 kPa	10000 kPa	15000 kPa	20000 kPa	25000 kPa	30000 kPa	35000 kPa
303.15 K, x1 = 0.0301	–	–	–	–	819.63	823.45	827.13	830.7
303.15 K, x1 = 0.0604	–	–	–	–	835.85	839.61	843.23	846.75
303.15 K, x1 = 0.1003	–	–	–	–	852.97	856.67	860.27	863.78
303.15 K, x1 = 0.1894	–	–	–	–	880.26	883.85	887.36	890.85
303.15 K, x1 = 0.3009	–	–	–	–	901.34	904.9	908.38	911.78
303.15 K, x1 = 0.4011	–	–	–	–	913.27	916.78	920.23	923.64
303.15 K, x1 = 0.4497	–	–	–	–	917.65	921.14	924.58	928.02
303.15 K, x1 = 0.5004	–	–	–	–	921.33	924.83	928.29	931.73
303.15 K, x1 = 0.5484	–	–	–	–	924.51	928	931.44	934.88
303.15 K, x1 = 0.6026	–	–	–	–	927.27	930.75	934.2	937.68
303.15 K, x1 = 0.701	–	–	–	–	931.36	934.84	938.28	941.72
303.15 K, x1 = 0.7881	–	–	–	–	934.01	937.52	941.01	944.48
303.15 K, x1 = 0.897	–	–	–	–	936.24	939.76	943.23	946.67
303.15 K, x1 = 0.9286	–	–	–	–	937.03	940.52	943.99	947.48
303.15 K, x1 = 0.961	–	–	–	–	937.54	941.04	944.51	947.99
313.15 K, x1 = 0.0303	792.52	797.34	802.01	806.47	810.73	814.85	818.84	822.75
313.15 K, x1 = 0.0601	808.67	813.36	817.9	822.24	826.41	830.42	834.31	838.11
313.15 K, x1 = 0.1002	826.53	831.11	835.57	839.84	843.93	847.86	851.66	855.32
313.15 K, x1 = 0.2005	857.05	861.4	865.62	869.66	873.55	877.31	880.98	884.59
313.15 K, x1 = 0.3009	876.08	880.25	884.34	888.29	892.1	895.78	899.34	902.8
313.15 K, x1 = 0.4008	888.55	892.6	896.62	900.51	904.28	907.92	911.43	914.81
313.15 K, x1 = 0.4516	893.1	897.1	901.09	904.98	908.76	912.41	915.91	919.27
313.15 K, x1 = 0.49	896.14	900.12	904.09	907.97	911.73	915.36	918.87	922.22
313.15 K, x1 = 0.552	900.13	904.12	908.1	911.97	915.72	919.34	922.83	926.18
313.15 K, x1 = 0.5881	902.29	906.26	910.2	914.04	917.76	921.35	924.82	928.16
313.15 K, x1 = 0.7048	907.14	911.12	915.08	918.92	922.65	926.25	929.72	933.06
313.15 K, x1 = 0.8042	910.23	914.21	918.18	922.04	925.78	929.4	932.87	936.18
313.15 K, x1 = 0.8998	912.3	916.37	920.38	924.25	927.99	931.6	935.1	938.49
313.15 K, x1 = 0.9373	913.06	917.05	921	924.83	928.56	932.18	935.71	939.17
313.15 K, x1 = 0.9651	913.5	917.5	921.47	925.34	929.11	932.78	936.35	939.83
